The results in this text go back to US5102900A, “Imidazoles useful as antiatherosclerotic agents” (Rhone-Poulenc Rorer S.A., priority 1989, dated 1992).

As usually defined, the inhibition is how much of the control response was suppressed.

Assay [1] has as its target T1, acyl coenzyme-A:cholesterol-O-acyl transferase (ACAT;EC 2.3.1.26) (Rattus norvegicus, UniProt Q7TQM4).
T1 construct: microsomes, prepared from the livers of rats; from tissue; host or cells: liver microsomes of rats fed 0.5% w/w cholesterol and 0.25% w/w cholic acid for 7 days
T1 sequence (Q7TQM4 1-524): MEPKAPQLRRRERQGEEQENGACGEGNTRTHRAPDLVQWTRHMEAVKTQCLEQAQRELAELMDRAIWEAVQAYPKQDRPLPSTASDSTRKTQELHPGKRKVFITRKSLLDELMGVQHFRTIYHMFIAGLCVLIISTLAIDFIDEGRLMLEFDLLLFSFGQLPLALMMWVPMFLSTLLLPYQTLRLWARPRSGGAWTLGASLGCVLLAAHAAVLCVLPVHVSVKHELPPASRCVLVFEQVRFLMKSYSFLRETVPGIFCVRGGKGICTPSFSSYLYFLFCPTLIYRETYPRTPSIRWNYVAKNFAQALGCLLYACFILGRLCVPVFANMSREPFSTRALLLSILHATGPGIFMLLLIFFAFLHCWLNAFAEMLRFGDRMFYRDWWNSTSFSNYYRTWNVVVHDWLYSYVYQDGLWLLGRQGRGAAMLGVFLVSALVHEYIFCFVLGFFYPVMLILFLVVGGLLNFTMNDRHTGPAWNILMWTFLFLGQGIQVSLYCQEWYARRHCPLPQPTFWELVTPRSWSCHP
The assay can be described thus: In vitro ACAT inhibition in liver microsomes of cholesterol-fed rats, radiolabelled oleoyl-CoA. It is filed as biochemical. Conditions: 1μg/ml; microsomes from livers of rats fed 0.5% w/w cholesterol and 0.25% w/w cholic acid for 7 days; read-out: In-vitro % Inhibition (degree of ACAT inhibition).

Assay [2] deals with rats. The experiment in a line: In vivo inhibition of increase in plasma cholesterol level in rats fed a cholesterol supplemented diet. The settings on record: 0.03% w/w test compound in cholesterol supplemented diet, after 3 days, 100% or more = similar to control rats on normal diet. Further details: species or system rat. As to the method:
In assays performed in vitro microsomes, prepared from the livers of rats fed a diet supplemented with 0.5% w/w cholesterol and 0.25% w/w cholic acid for 7 days, were incubated with radiolabelled oleoyl-CoA in the presence of compounds according to the invention at a concentration of 1μg/ml.
Values of 100% or more indicate plasma cholesterol concentrations that were similar to those of control rats fed on a normal (non-supplemented) diet.

Consider `CC1CC(C)OC(c2nc(-c3ccccc3)c(-c3ccccc3)[nH]2)O1` (racemic) [Compound C, (±)-cis/trans-2-(4,6-dimethyl-1,3-dioxan-2-yl)-4,5-diphenylimidazole], for which, in assay [1], the inhibition at 1 µg/mL was 74%.
With `c1ccc(-c2nc(C3OCCCO3)[nH]c2-c2ccccc2)cc1` [Compound A, 2-(1,3-dioxan-2-yl)-4,5-diphenylimidazole], the inhibition at 1 µg/mL in assay [1] turned out to be 94%. In addition, in assay [2], the “In-vivo % Reduction (inhibition of increase in plasma cholesterol level relative to control animals)” value was determined as 86%.
